Where two headings read alike, the source gives them in different places.
Assay: Pharmacokinetics of ZA in pig serum after IV or SC infusion with or without rHuPH20 (LC-MS-MS, non-compartmental analysis)
Format: in vivo
Conditions: ZA […], rHuPH20 0 U/mL
Experimental: A pharmacokinetic study of zoledronic acid (ZA) co-administered with rHuPH20 in female Yorkshire swines was conducted. The primary objective of the study was to determine the bioavailability of zoledronic acid dosed via subcutaneous (SC) co-administration with human recombinant hyaluronidase PH20 (rHuPH20) and to compare the overall exposure to an equivalent IV dose.
Animals in Study Group 1 were dosed with 0.15 mg/kg ZA given via a 20-minute IV infusion. Animals in Study Groups 2 and 3 were dosed subcutaneously (SC) with 0.15 mg/kg ZA without and with rHuPH20, respectively, in different SC delivery volumes.
Following ZA dose administration, serial blood samples were collected via vascular access ports (VAPs) for serum preparation and determination of ZA concentrations. Blood collection times were at 1, 3, 5, 10, 15, 20, 30, 45, and 60 minutes, and at 1.5, 2, 3, 4, 6, 8, 10, 24, 48, and 72 hours post dose. Urine samples were also collected to compare excretion characteristics between IV and SC routes of administration. Collection times for urine were at 15 minutes before dosing (−15 min.), continuously from dose initiation to 2 hours post dose, and at 4, 6, 8, and 24 hours post dose thereafter.
Serum concentration of ZA was determined using a qualified LC-MS-MS assay after derivatization with diazomethane (Zhu, L S et al. (2006) Rapid Commun. Mass Spectrom. 20: 3421-3426; “Qualification Data of An LC-MS/MS Method for the Determination of Zoledronate in Porcine Serum”, MDS Pharma Services Study No. AA43671-01, Report Date 14 Sep. 2007). The assay range was from 2.0 to 400 ng/mL with a lower limit of quantitation (LLOQ) at 2.0 ng/mL. Urine concentration of ZA was determined by a similar well qualified LC-MS-MS method (“Qualification Data of An LC-MS/MS Method for the Determination of Zoledronate in Porcine Urine”, MDS Pharma Services Study No. AA43671-02, Report Date 14 Sep. 2007) with an assay LLOQ at 10 ng/mL.
Pharmacokinetic (PK) analyses of ZA serum concentration versus time data were conducted using WinNonlin v5.1 (Pharsight, Mountain View, Calif.). Non-compartmental analysis was used for derivation of primary and secondary pharmacokinetic (PK) parameters. AUC, Cmax, and Tmax were compared between dose routes, between co-administration with rHuPH20, and with dose of rHuPH20.

[1] = female, Yorkshire, pig, serum, intravenous, […], animal ID 57, Study Group 1, IV 20 min infusion, read-out: Zoledronic Acid Serum Concentration
[2] = female, Yorkshire, pig, serum, intravenous, […], animal ID 61, Study Group 1, IV 20 min infusion, read-out: Zoledronic Acid Serum Concentration

## O=P(O)(O)C(O)(Cn1ccnc1)P(=O)(O)O [ZA, 1-hydroxy-2-(1H-imidazol-1-yl)ethylidene-1,1-bisphosphonic acid]
Time 6 h, pig ID 59, Study Group 2, SC, 100 mL, 16 min
  Zoledronic Acid Serum Concentration: BLQ (BLQ = below assay limit of quantification (2.0 ng/mL))
Time 8 h, pig ID 59, Study Group 2, SC, 100 mL, 16 min
  Zoledronic Acid Serum Concentration: BLQ (BLQ = below assay limit of quantification (2.0 ng/mL))
Time 8 h, pig ID 60, Study Group 2, SC, 100 mL, 16 min
  Zoledronic Acid Serum Concentration: BLQ (BLQ = below assay limit of quantification (2.0 ng/mL))
Time 8 h, pig ID 62, Study Group 2, SC, 50 mL, 8 min
  Zoledronic Acid Serum Concentration: BLQ (BLQ = below assay limit of quantification (2.0 ng/mL))
Time 8 h, pig ID 69, Study Group 2, SC, 25 mL, 4 min
  Zoledronic Acid Serum Concentration: BLQ (BLQ = below assay limit of quantification (2.0 ng/mL))
Time 10 h, pig ID 59, Study Group 2, SC, 100 mL, 16 min
  Zoledronic Acid Serum Concentration: BLQ (BLQ = below assay limit of quantification (2.0 ng/mL))
Time 10 h, pig ID 60, Study Group 2, SC, 100 mL, 16 min
  Zoledronic Acid Serum Concentration: BLQ (BLQ = below assay limit of quantification (2.0 ng/mL))
Time 10 h, pig ID 62, Study Group 2, SC, 50 mL, 8 min
  Zoledronic Acid Serum Concentration: BLQ (BLQ = below assay limit of quantification (2.0 ng/mL))
Time 10 h, pig ID 69, Study Group 2, SC, 25 mL, 4 min
  Zoledronic Acid Serum Concentration: BLQ (BLQ = below assay limit of quantification (2.0 ng/mL))
Time 10 h, pig ID 70, Study Group 2, SC, 10 mL, 1.6 min
  Zoledronic Acid Serum Concentration: BLQ (BLQ = below assay limit of quantification (2.0 ng/mL))
Time 24 h, pig ID 59, Study Group 2, SC, 100 mL, 16 min
  Zoledronic Acid Serum Concentration: BLQ (BLQ = below assay limit of quantification (2.0 ng/mL))
Time 24 h, pig ID 60, Study Group 2, SC, 100 mL, 16 min
  Zoledronic Acid Serum Concentration: BLQ (BLQ = below assay limit of quantification (2.0 ng/mL))
Time 24 h, pig ID 62, Study Group 2, SC, 50 mL, 8 min
  Zoledronic Acid Serum Concentration: BLQ (BLQ = below assay limit of quantification (2.0 ng/mL))
Time 24 h, pig ID 69, Study Group 2, SC, 25 mL, 4 min
  Zoledronic Acid Serum Concentration: BLQ (BLQ = below assay limit of quantification (2.0 ng/mL))
Time 24 h, pig ID 70, Study Group 2, SC, 10 mL, 1.6 min
  Zoledronic Acid Serum Concentration: BLQ (BLQ = below assay limit of quantification (2.0 ng/mL))
Time 48 h, pig ID 59, Study Group 2, SC, 100 mL, 16 min
  Zoledronic Acid Serum Concentration: BLQ (BLQ = below assay limit of quantification (2.0 ng/mL))
Time 48 h, pig ID 60, Study Group 2, SC, 100 mL, 16 min
  Zoledronic Acid Serum Concentration: BLQ (BLQ = below assay limit of quantification (2.0 ng/mL))
Time 48 h, pig ID 62, Study Group 2, SC, 50 mL, 8 min
  Zoledronic Acid Serum Concentration: BLQ (BLQ = below assay limit of quantification (2.0 ng/mL))
Time 48 h, pig ID 69, Study Group 2, SC, 25 mL, 4 min
  Zoledronic Acid Serum Concentration: BLQ (BLQ = below assay limit of quantification (2.0 ng/mL))
Time 48 h, pig ID 70, Study Group 2, SC, 10 mL, 1.6 min
  Zoledronic Acid Serum Concentration: BLQ (BLQ = below assay limit of quantification (2.0 ng/mL))
Time 72 h, pig ID 59, Study Group 2, SC, 100 mL, 16 min
  Zoledronic Acid Serum Concentration: BLQ (BLQ = below assay limit of quantification (2.0 ng/mL))
Time 72 h, pig ID 60, Study Group 2, SC, 100 mL, 16 min
  Zoledronic Acid Serum Concentration: BLQ (BLQ = below assay limit of quantification (2.0 ng/mL))
Time 72 h, pig ID 62, Study Group 2, SC, 50 mL, 8 min
  Zoledronic Acid Serum Concentration: BLQ (BLQ = below assay limit of quantification (2.0 ng/mL))
Time 72 h, pig ID 69, Study Group 2, SC, 25 mL, 4 min
  Zoledronic Acid Serum Concentration: BLQ (BLQ = below assay limit of quantification (2.0 ng/mL))
Time 72 h, pig ID 70, Study Group 2, SC, 10 mL, 1.6 min
  Zoledronic Acid Serum Concentration: BLQ (BLQ = below assay limit of quantification (2.0 ng/mL))
Time […], pig ID 60, Study Group 2, SC, 100 mL, 16 min
  Zoledronic Acid Serum Concentration: BLQ (BLQ = below assay limit of quantification (2.0 ng/mL))
Time […], pig ID 62, Study Group 2, SC, 50 mL, 8 min
  Zoledronic Acid Serum Concentration: BLQ (BLQ = below assay limit of quantification (2.0 ng/mL))
Time […], pig ID 69, Study Group 2, SC, 25 mL, 4 min
  Zoledronic Acid Serum Concentration: BLQ (BLQ = below assay limit of quantification (2.0 ng/mL))
Time […], pig ID 70, Study Group 2, SC, 10 mL, 1.6 min
  Zoledronic Acid Serum Concentration: BLQ (BLQ = below assay limit of quantification (2.0 ng/mL))
Animal ID 57, Study Group 1, IV 20 min infusion, time 6 h
  Zoledronic Acid Serum Concentration: BLQ^a (BLQ = below assay limit of quantification (2.0 ng/mL))
Animal ID 57, Study Group 1, IV 20 min infusion, time 8 h
  Zoledronic Acid Serum Concentration: BLQ (BLQ = below assay limit of quantification (2.0 ng/mL))
Animal ID 57, Study Group 1, IV 20 min infusion, time 10 h
  Zoledronic Acid Serum Concentration: BLQ (BLQ = below assay limit of quantification (2.0 ng/mL))
Animal ID 57, Study Group 1, IV 20 min infusion, time 24 h
  Zoledronic Acid Serum Concentration: BLQ (BLQ = below assay limit of quantification (2.0 ng/mL))
Animal ID 57, Study Group 1, IV 20 min infusion, time 48 h
  Zoledronic Acid Serum Concentration: BLQ (BLQ = below assay limit of quantification (2.0 ng/mL))
Animal ID 57, Study Group 1, IV 20 min infusion, time 72 h
  Zoledronic Acid Serum Concentration: BLQ (BLQ = below assay limit of quantification (2.0 ng/mL))
Animal ID 57, Study Group 1, IV 20 min infusion, time […]
  Zoledronic Acid Serum Concentration: BLQ (BLQ = below assay limit of quantification (2.0 ng/mL))
Animal ID 61, Study Group 1, IV 20 min infusion, time 6 h
  Zoledronic Acid Serum Concentration: BLQ (BLQ = below assay limit of quantification (2.0 ng/mL))
Animal ID 61, Study Group 1, IV 20 min infusion, time 8 h
  Zoledronic Acid Serum Concentration: BLQ (BLQ = below assay limit of quantification (2.0 ng/mL))
Animal ID 61, Study Group 1, IV 20 min infusion, time 10 h
  Zoledronic Acid Serum Concentration: BLQ (BLQ = below assay limit of quantification (2.0 ng/mL))
Animal ID 61, Study Group 1, IV 20 min infusion, time 24 h
  Zoledronic Acid Serum Concentration: BLQ (BLQ = below assay limit of quantification (2.0 ng/mL))
Animal ID 61, Study Group 1, IV 20 min infusion, time 48 h
  Zoledronic Acid Serum Concentration: BLQ (BLQ = below assay limit of quantification (2.0 ng/mL))
Animal ID 61, Study Group 1, IV 20 min infusion, time 72 h
  Zoledronic Acid Serum Concentration: BLQ (BLQ = below assay limit of quantification (2.0 ng/mL))
Animal ID 61, Study Group 1, IV 20 min infusion, time […]
  Zoledronic Acid Serum Concentration: BLQ (BLQ = below assay limit of quantification (2.0 ng/mL))
Animal ID 67, Study Group 1, IV 20 min infusion, time 6 h
  Zoledronic Acid Serum Concentration: BLQ (BLQ = below assay limit of quantification (2.0 ng/mL))
Animal ID 67, Study Group 1, IV 20 min infusion, time 8 h
  Zoledronic Acid Serum Concentration: BLQ (BLQ = below assay limit of quantification (2.0 ng/mL))
Animal ID 67, Study Group 1, IV 20 min infusion, time 10 h
  Zoledronic Acid Serum Concentration: BLQ (BLQ = below assay limit of quantification (2.0 ng/mL))
Animal ID 67, Study Group 1, IV 20 min infusion, time 24 h
  Zoledronic Acid Serum Concentration: BLQ (BLQ = below assay limit of quantification (2.0 ng/mL))
Animal ID 67, Study Group 1, IV 20 min infusion, time 48 h
  Zoledronic Acid Serum Concentration: BLQ (BLQ = below assay limit of quantification (2.0 ng/mL))
Animal ID 67, Study Group 1, IV 20 min infusion, time 72 h
  Zoledronic Acid Serum Concentration: BLQ (BLQ = below assay limit of quantification (2.0 ng/mL))
Animal ID 67, Study Group 1, IV 20 min infusion, time […]
  Zoledronic Acid Serum Concentration: BLQ (BLQ = below assay limit of quantification (2.0 ng/mL))
[1]
  concentration at 0.016 h: 255 ng/mL
  concentration at 0.05 h: 446 ng/mL
  concentration at 0.333 h: 388 ng/mL
female, Yorkshire, pig, serum, intravenous, […], animal ID 57, Study Group 1, IV 20 min infusion, time 0.50 h, read-out: Zoledronic Acid Serum Concentration
  concentration at 0.5 h: 244 ng/mL
female, Yorkshire, pig, serum, intravenous, […], animal ID 57, Study Group 1, IV 20 min infusion, time 1.00 h, read-out: Zoledronic Acid Serum Concentration
  concentration at 1 h: 71.4 ng/mL
female, Yorkshire, pig, serum, intravenous, […], animal ID 57, Study Group 1, IV 20 min infusion, time 2 h, read-out: Zoledronic Acid Serum Concentration
  concentration at 2 h: 15.4 ng/mL
female, Yorkshire, pig, serum, intravenous, […], animal ID 57, Study Group 1, IV 20 min infusion, time 3 h, read-out: Zoledronic Acid Serum Concentration
  concentration at 3 h: 5.8 ng/mL
female, Yorkshire, pig, serum, intravenous, […], animal ID 57, Study Group 1, IV 20 min infusion, time 4 h, read-out: Zoledronic Acid Serum Concentration
  concentration at 4 h: 2.8 ng/mL
[2]
  concentration at 0.016 h: 254 ng/mL
  concentration at 0.05 h: 196 ng/mL
  concentration at 0.333 h: 596 ng/mL
female, Yorkshire, pig, serum, intravenous, […], animal ID 61, Study Group 1, IV 20 min infusion, time 0.5 h, read-out: Zoledronic Acid Serum Concentration
  concentration at 0.5 h: 299 ng/mL
female, Yorkshire, pig, serum, intravenous, […], animal ID 61, Study Group 1, IV 20 min infusion, time 1 h, read-out: Zoledronic Acid Serum Concentration
  concentration at 1 h: 85.5 ng/mL
